Laboratory results published in US20200330447A1, “CANCER TREATMENT VIA REPOSITIONED TRICYCLIC ANTI-DEPRESSANT-LIKE DRUGS AS ANTI-CANCER AGENTS AND NEW COMBINATIONS OF SUCH DRUGS” (Board of Supervisors of Louisiana State University and …, priority 2015, published 2020).

Columns and labels:
Assay type in all cases: cell-based
[1] = system: DU145 prostate cancer cells; assay: High content imaging-based screen (Cellomics) for lysosome migration inhibitors; conditions: pH 6.4 media, 2 micrograms per ml, 16 hours
Method: DEVELOPMENT OF A HIGH CONTENT IMAGING-BASED SCREEN: The followings process was followed to identify chemicals that were lysosome migration inhibitors. DU145 prostate cancer cells were seeded in 96 well flat bottom black walled plates at 4,500 cells per well. All compounds and controls were exposed to RPMI bicarbonate buffered media (pH 6.4). RPMI buffered media titrated at pH of 6.4-6.8 was added to column 12 after the media was removed and serves as negative control (low acidic pH so lysosomes move out). […] The 4 compound libraries chosen to screen were the NIH Clinical Collection (450 drugs), Prestwick (1200 drugs), Prestwick phytochemical and the Green Pharma collection (xx drugs). Compounds were diluted with buffered RPMI media to 2 micrograms per ml concentrations. Individual compounds to be screened were added robotically as a single compound per well through columns 2-11. Plates were incubated at 37 degrees in 5% CO2 for 16 hours then the medium was removed and the cells were fixed with 4% cold paraformaldehyde (Sigma-Aldrich) for 20 minutes at 4 degrees. Fixed cells were washed once with PBS. To stain lysosomes, cells were incubated for 1 hour with LAMP1 antibody (H4A3) diluted in BSP (containing 0.25% BSA and 0.1% saponin in PBS) at 1/200. Cells were then washed with PBS 3 times then incubated for 1 hour with Dylight Donkey anti-mouse diluted at 1/200 in BSP. To stain the nucleus, cells were then washed with PBS 3 times and incubated for 20 minutes with 1×DAPI diluted in PBS. DAPI was washed off with PBS and cells were maintained in PBS for the duration of the screening process. Plates were mounted and read in a Cellomics Arrayscan automated fluorescence imager. The Cellomics platform allows for high content throughput screening by combining fluorescence microscopy with a multi-parameter image analysis. Cells were photographed using 20× objective in 2 fluorescent channels. A total of 15 different fields in each well, and at least 300 cells were imaged per well. The biocompartmental analysis algorithm was used to identify each cell by its nucleus (channel 1 recognized by the DAPI stain) and to generate a cytoplasmic mask (ring) of 12 pixels width in which the inner ring was 6 pixels away from the nucleus. The algorithm calculates the number of lysosomes inside the ring as indicated by fluorescent LAMP-1 positive puncta in channel 2 as a mean ring spot count. Therefore, when lysosomes move away from the nucleus and disperse throughout the cytoplasm, the number of spots representing lysosomes inside the cytoplasmic ring increases (low pH conditions). By contrast, lysosomes cluster near the nucleus the numbers of spot inside the cytoplasmic ring decreases (EIPA treated).
Z′-factor is a simple statistical coefficient used to assess performance and quality of the assay in high-throughput screening. It is calculated with the formula: Z′=1-(3σct+3σcb)/|μct−μcb|, where p indicates mean, a represents standard deviation, “ct” indicates the positive control, “cb” indicates the negative control. […] If the Z′ is more than 0.5, the assay is considered to be high quality assay.
The Z′ factor of the assay was determined from the EIPA (positive control) and low pH (negative control). Experiments were run in duplicate. Only plates with positive Z′ factor was used for analysis.

A172 glioblastoma cells = assay: Acidic media pH induced lysosome distribution, LAMP-1 IF imaging; conditions: for acidic media induced trafficking of lysosomes to the cell periphery: 5 or 10 μM overnight, then low pHe media with drug 2 h; for lysosomal outward movement, early time: 5 or 10 μM, 2 h then low pHe media with drugs 2 h (4 hours); for inward movement of lysosomes, single drug: one micromolar alone
Method: A172 glioblastoma cells were treated overnight with 5 or 10 μM deptropine or pizotifen or with the deptropine or pizotifen in combination at 5 μM concentration. The next day, media was change to low pHe media containing deptropine or pizotifen and the cells were incubated for an additional 2 h. EIPA is a known inhibitor of lysosomal outward movement and represents the positive control. At the end of the incubation time, cells were fixed and stained for LAMP-1, filamentous actin and nuclei. Representative merged IF images depicting the effect of pHe 7.4, pHe 6.4, DMSO or deptropine and pizotifen on the distribution of lysosomes in A172 glioblastoma cells. On color versions of the Figure, red puncta are lysosomes, blue is nuclei and green is actin. As could be seen, lysosomes appear more peripherally distributed in A172 glioma cells than in cells treated with concentrations of 5 to 10 micromolar deptropine or pizotifen.
Cells were treated as described above with FIG. 2 but included a concentration of 0.1 micromolar and 1 micromolar deptropine and pizotifen.
Turning to FIG. 7, an additional aspect of this technology is how quickly deptropine and pizotifen act to move lysosomes towards the nucleus. […] A172 glioblastoma cells were treated with the 5 or 10 μM deptropine or pizofifen for 2 h and then with low pHe media containing the drugs for an additional 2 hours. At the end of incubation time, cells were fixed and stained for LAMP-1, filamentous actin, and nuclei. Representative merged IF images depicting the effect of DMSO, 5 and 10 μM deptropine or pizotifen upon 4 hours on the distribution of lysosomes, colored red in color images, in A172 glioblastoma cells. Also shown in color images are actin, colored green, and nuclei, colored blue.

mTOR signaling pathway = assay: Western blot of phosphorylated S6K (mTOR signaling); conditions: A172 cells, 4 hours
Method: Deptropine and pizotifen were added to A172 cells for 4 hours and western blot analysis was performed to measure levels of phosphorylated S6K, indicative of active mTOR signaling.

A172 cells = assay: Standard MTS assay (proliferation); conditions: concentrations up to 10 micromolar
Method: A very beneficial aspect of the treatment with deptropine and pizotifen is shown in FIG. 11, namely that the actions of deptropine and pizotifen are not the result of toxicity. The standard MTS assay was performed for A172 cells in the presence of the indicate concentrations of deptropine and pizotifen.

SMILES	hit in screen for lysosome migration inhibitors (mean ring spot count) [1]	acidic media induced trafficking of lysosomes to the cell periphery (A172 glioblastoma cells)	lysosomal outward movement, early time (A172 glioblastoma cells)	inward movement of lysosomes, single drug (A172 glioblastoma cells)	phosphorylation of S6K (mTOR signaling pathway)	proliferation (MTS) (A172 cells)
CN1[C@@H]2CC[C@H]1C[C@@H](OC1c3ccccc3CCc3ccccc31)C2 [deptropine, 3a-[(10, 11-dihydro-5H-dibenzo[a,d]cyclohepten-5-yl)oxy]1aH,5aH-tropane]	hits	blocks acidic media induced trafficking of lysosomes to the cell periphery	prevent lysosomal outward movement	only a marginal effect	eliminates the phosphorylation of S6K	do not inhibit proliferation
CN1CCC(=C2c3ccccc3CCc3sccc32)CC1 [pizotifen, 4-(1-methyl-4-piperidylidine)-9,10-dihydro-4H-benzo-[4,5]cyclohepta[1,2]-thiophene]	hits	blocks acidic media induced trafficking of lysosomes to the cell periphery	prevent lysosomal outward movement	only a marginal effect	eliminates the phosphorylation of S6K	do not inhibit proliferation
